Patent US9605005B2, “Alkynyl alcohols and methods of use” (Genentech, Inc., priority 2013, dated 2017)

How the values were obtained:
[1] = test system: REL-A (p65) nuclear translocation, HeLa cells; assay: REL-A (p65) nuclear translocation assay in HeLa cells (classical NF-kB signaling, TNF-α stimulated); type: cell-based; conditions: Homo sapiens, 0.5 h; HeLa cells, 10 ng/mL TNF-α for 30 minutes; read-out: REL-A HeLa Transloc Assay (IC50)
Procedure, shortened: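 HeLa cells were exposed to test compounds at various concentrations (0.2% DMSO final) in medium with 10% fetal bovine serum for 4.5 hours, then stimulated for 30 minutes with 10 ng/mL TNF-α. After fixation in 4% paraformaldehyde, 0.1% Triton X-100 permeabilization and staining with 400 ng/mL anti-REL-A (p65) antibody, Alexa488 secondary and DRAQ5, Opera imaging gave nuclear-to-cytoplasmic signal ratios to calculate IC50.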

[2] = molecular target: nuclear factor-kappa B (NF-kB)-inducing kinase (NIK) (Homo sapiens (Human), UniProt Q99558); assay: NIK enzyme inhibition assay (Transcreener ADP, NIK ADP-FP); type: biochemical; conditions: purified NIK 0.5 nM, 10 μM ATP, fluorescence polarization; read-out: NIK ADP-FP (Ki μM)
[3] = test system: p52 (NF-kB2) nuclear translocation, HeLa cells; assay: p52 (NF-kB2) nuclear translocation assay in HeLa cells (non-classical NF-kB signaling, anti-lymphotoxin beta receptor antibody stimulated); type: cell-based; conditions: Homo sapiens, 100 ng/mL anti-lymphotoxin beta receptor antibody for 5 hours, read-out: p52 HeLa Transloc Assay (IC50)
Procedure, shortened: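 HeLa cells in 10% FBS medium were treated with compound (0.2% DMSO final) and stimulated with 100 ng/mL anti-lymphotoxin beta receptor antibody for 5 h. Fixed cells were immunostained for p52 and imaged with DRAQ5 nuclear stain. Translocation is the nuclear to cytoplasmic intensity ratio, and IC50 values are in micromolar.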

Chain of nuclear factor-kappa B (NF-kB)-inducing kinase (NIK) (Q99558 whole entry): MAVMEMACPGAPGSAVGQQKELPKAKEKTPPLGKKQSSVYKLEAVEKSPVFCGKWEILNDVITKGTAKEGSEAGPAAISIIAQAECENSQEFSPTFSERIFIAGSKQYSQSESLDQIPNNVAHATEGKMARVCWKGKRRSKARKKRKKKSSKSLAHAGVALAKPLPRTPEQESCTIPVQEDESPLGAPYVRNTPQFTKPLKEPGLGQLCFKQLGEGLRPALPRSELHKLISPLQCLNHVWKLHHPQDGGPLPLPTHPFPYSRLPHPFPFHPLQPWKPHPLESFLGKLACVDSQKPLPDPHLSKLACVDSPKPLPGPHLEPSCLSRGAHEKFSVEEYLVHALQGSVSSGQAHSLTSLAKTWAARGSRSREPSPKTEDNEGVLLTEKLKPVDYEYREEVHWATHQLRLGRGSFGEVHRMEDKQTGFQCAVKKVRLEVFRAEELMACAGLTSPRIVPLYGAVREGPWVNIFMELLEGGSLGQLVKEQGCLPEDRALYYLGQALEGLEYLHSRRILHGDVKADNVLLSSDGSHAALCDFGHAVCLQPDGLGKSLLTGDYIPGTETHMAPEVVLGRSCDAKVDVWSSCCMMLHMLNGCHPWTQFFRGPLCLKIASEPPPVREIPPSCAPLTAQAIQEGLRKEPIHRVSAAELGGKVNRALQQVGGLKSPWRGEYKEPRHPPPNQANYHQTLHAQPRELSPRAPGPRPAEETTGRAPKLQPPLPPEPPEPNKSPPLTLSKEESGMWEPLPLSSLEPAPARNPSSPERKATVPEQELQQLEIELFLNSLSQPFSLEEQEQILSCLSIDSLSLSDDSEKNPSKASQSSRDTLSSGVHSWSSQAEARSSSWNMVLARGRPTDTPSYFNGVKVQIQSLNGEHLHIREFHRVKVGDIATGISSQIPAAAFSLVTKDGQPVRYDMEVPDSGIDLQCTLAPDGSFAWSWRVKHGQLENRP

Structure (SMILES) | IC50 [1] [nM] | Ki [2] [nM] | IC50 [3] [nM]
CNc1nccc2c1c(C(N)=O)nn2-c1cccc(C#C[C@]2(O)CCN(C)C2=O)c1 [Compound 49, 1-[3-[2-[(3R)-3-hydroxy-1-methyl-2-oxo-pyrrolidin-3-yl]ethynyl]phenyl]-4-(meth-ylamino)pyrazolo[4,3-c]pyri-dine-3-carboxamide] | 8000 | 0.05 | 7.7
CN1CC[C@@](O)(C#Cc2cccc(-c3nc(C(N)=O)n4c3CCCC4)c2)C1=O [Compound 177, (R)-1-(3-((3-hydroxy-1-methyl-2-oxopyrrolidin-3-yl)ethynyl)phenyl)-5,6,7,8-tetrahydroimidazo[1,5-a]pyridine-3-carboxamide] | > 2000 | 0.11 | 150
COc1cc2c(C(N)=O)nn(-c3cccc(C#C[C@]4(O)CCN(C)C4=O)c3)c2cn1 [Compound 150, 1-[3-[2-[(3R)-3-hydroxy-1-methyl-2-oxo-pyrrolidin-3-yl]ethynyl]phenyl]-5-methoxy-pyrazolo[3,4-c]pyridine-3-carboxamide] | 20000 | 0.29 | 57.3
COc1cc(C#C[C@]2(O)CCN(C)C2=O)cc(-n2nc(C(N)=O)c3cccnc32)c1 [Compound 73, 1-[3-[2-[(3R)-3-hydroxy-1-methyl-2-oxo-pyrrolidin-3-yl]ethynyl]-5-methoxy-phe-nyl]pyrazolo[3,4-b]pyridine-3-carboxamide] | 20000 | 1.05 | 119
Cc1ncc2c(C(N)=O)nn(-c3cccc(C#C[C@]4(O)CCN(C)C4=O)c3)c2n1 [Compound 157, 1-[3-[2-[(3R)-3-hydroxy-1-methyl-2-oxo-pyrrolidin-3-yl]ethynyl]phenyl]-6-methyl-pyrazolo[3,4-d]pyrimidine-3-carboxamide] | 2000 | 0.68 | 157
CN1CC[C@@](O)(C#Cc2cccc(-n3nc(C(N)=O)c4ccc(Cl)nc43)c2)C1=O [Compound 153, 6-chloro-1-[3-[2-[(3R)-3-hy-droxy-1-methyl-2-oxo-pyrroli-din-3-yl]ethynyl]phenyl] pyrazolo[3,4-b]pyridine-3-carboxamide] | 2000 | 0.52 | 132
CN1CC[C@@](O)(C#Cc2cccc(-n3nc(C(N)=O)c4cncnc43)c2)C1=O [Compound 114, 1-[3-[2-[(3R)-3-hydroxy-1-methyl-2-oxo-pyrrolidin-3-yl]ethynyl]phenyl]pyrazolo [3,4-d]pyrimidine-3-carbox-amide] | 20000 | 0.19 | 39.4
Cc1cc(C#C[C@]2(O)CCN(C)C2=O)cc(-n2nc(C(N)=O)c3cccnc32)c1 [Compound 152, 1-[3-[2-[(3R)-3-hydroxy-1-methyl-2-oxo-pyrrolidin-3-yl]ethynyl]-5-methyl-phenyl] pyrazolo[3,4-b]pyridine-3-carboxamide] | 20000 | 0.87 | 45.8
CN1CC[C@@](O)(C#Cc2cccc(-n3nc(C(N)=O)c4cc(-c5ccn(C)n5)ccc43)c2)C1=O [Compound 101, 1-[3-[2-[(3R)-3-hydroxy-1-methyl-2-oxo-pyrrolidin-3-yl]ethynyl]phenyl]-5-(1-meth-ylpyrazol-3-yl)indazole-3-carboxamide] | 6320 | 0.06 | 31.2
Cc1cc([C@](C)(O)C#Cc2ccnc(-n3nc(C(N)=O)c4c3CCCC4)c2)no1 [Compound 60, 1-[4-[(3R)-3-hydroxy-3-(5-methylisoxazol-3-yl)but-1-ynyl]-2-pyridyl]-4,5,6,7-tetra-hydroindazole-3-carbox-amide] | 20000 | 13.7 | 2310
CN1CC[C@@](O)(C#Cc2cccc(-c3nc(C(N)=O)n4ccc(OC5CCC5)cc34)c2)C1=O [Compound 96, 7-(cyclobutoxy)-1-[3-[2-[(3R)-3-hydroxy-1-methyl-2-oxo-pyrrolidin-3-yl]ethynyl]phenyl]imidazo[1,5-a]pyridine-3-carboxamide] | 20000 | 0.14 | 60.3
CN1CC[C@@](O)(C#Cc2cccc(-c3nn(C(N)=O)c4ccccc34)c2)C1=O [Compound 147, 3-[3-[2-[(3R)-3-hydroxy-1-methyl-2-oxo-pyrrolidin-3-yl]ethynyl]phenyl]indazole-1-carboxamide] | 20000 | 0.324 | 14.1
CN1CC[C@@](O)(C#Cc2cccc(-c3nc(C(N)=O)n4ccc(C(N)=O)cc34)c2)C1=O [Compound 178, 1-[3-[2-[(3R)-3-hydroxy-1-methyl-2-oxo-pyrrolidin-3-yl]ethynyl]phenyl]imidazo [1,5-a]pyridine-3,7-dicarboxamide] | > 2000 | 0.1 | 636
COc1ccc2c(c1)c(C(N)=O)nn2-c1cccc(C#C[C@]2(O)CCN(C)C2=O)c1 [Compound 14, 1-[3-[2-[(3R)-3-hydroxy-1-methyl-2-oxo-pyrrolidin-3-yl]ethynyl]phenyl]-5-methoxy-indazole-3-carboxamide] | 20000 | 0.05 | 67.8
CN1CC[C@@](O)(C#Cc2cccc(-n3nc(C(N)=O)c4c3CCN(c3ncccn3)C4)c2)C1=O [Compound 121, 1-[3-[2-[(3R)-3-hydroxy-1-methyl-2-oxo-pyrrolidin-3-yl]ethynyl]phenyl]-5-pyrimi-din-2-yl-6,7-dihydro-4H-pyra-zolo[4,3-c]pyridine-3-carbox-amide] | 20000 | 1.05 | 203
Cc1c(Cl)c(C(N)=O)nn1-c1cc(C#C[C@]2(O)CCN(C)C2=O)ccn1 [Compound 78, 4-chloro-1-[4-[2-[(3R)-3-hy-droxy-1-methyl-2-oxo-pyrroli-din-3-yl]ethynyl]-2-pyri-dyl]-5-methyl-pyrazole-3-car-boxamide] | 20000 | 16.8 | 2710
CCNc1nccc2c1c(C(N)=O)nn2-c1cccc(C#C[C@]2(O)CCN(C)C2=O)c1 [Compound 129, 4-(ethylamino)-1-[3-[2-[(3R)-3-hydroxy-1-methyl-2-oxo-pyrrolidin-3-yl]ethynyl]phenyl]pyrazolo[4,3-c]pyri-dine-3-carboxamide] | 4470 | 0.05 | 8.12
CN1CC[C@@](O)(C#Cc2cccc(-n3nc(C(N)=O)c4cc(OCCN5CCOCC5)ccc43)c2)C1=O [Compound 162, 1-[3-[2-[(3R)-3-hydroxy-1-methyl-2-oxo-pyrrolidin-3-yl]ethynyl]phenyl]-5-(2-morpho-linoethoxy)indazole-3-carboxamide] | 2000 | 0.35 | 237
CN1CC[C@@](O)(C#Cc2ccnc(-n3nc(C(N)=O)c4c(F)cccc43)c2)C1=O [Compound 10, 4-fluoro-1-[4-[2-[(3R)-3-hy-droxy-1-methyl-2-oxo-pyrroli-din-3-yl]ethynyl]-2-pyri-dyl]indazole-3-carboxamide] | 20000 | 1.19 | 66.3
CN1CC[C@@](O)(C#Cc2cccc(-n3nc(C(N)=O)c4cnc(Cl)cc43)c2)C1=O [Compound 76, 6-chloro-1-[3-[2-[(3R)-3-hy-droxy-1-methyl-2-oxo-pyrroli-din-3-yl]ethynyl]phenyl] pyrazolo[4,3-c]pyridine-3-carboxamide] | 8000 | 0.05 | 41.2
